Data from ChEMBL document CHEMBL5291721, “A preclinical secondary pharmacology resource illuminates target-adverse drug reaction associations of marketed drugs” (Nat Commun, 2023).
“And” between values parts separate entries of the source, which are not always exact repeats. Equal entries are not always repeated.

Legend:
[1] = biological target: T1, Type-1 angiotensin II receptor (Homo sapiens, UniProt P30556)
T1 sequence (P30556 whole entry): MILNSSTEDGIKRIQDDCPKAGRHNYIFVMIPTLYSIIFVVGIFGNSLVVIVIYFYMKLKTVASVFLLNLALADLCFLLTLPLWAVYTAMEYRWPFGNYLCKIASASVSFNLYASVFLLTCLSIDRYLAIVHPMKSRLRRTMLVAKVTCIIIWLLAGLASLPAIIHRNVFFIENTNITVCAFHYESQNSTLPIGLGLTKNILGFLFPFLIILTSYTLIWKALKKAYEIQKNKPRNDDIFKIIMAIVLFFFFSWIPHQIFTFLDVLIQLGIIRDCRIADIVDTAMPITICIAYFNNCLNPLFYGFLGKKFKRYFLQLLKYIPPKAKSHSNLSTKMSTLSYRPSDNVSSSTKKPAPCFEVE

[2] = biological target: T2, Muscarinic acetylcholine receptor M2 (Homo sapiens, UniProt P08172); type: functional, cell-based
T2 sequence (P08172 whole entry): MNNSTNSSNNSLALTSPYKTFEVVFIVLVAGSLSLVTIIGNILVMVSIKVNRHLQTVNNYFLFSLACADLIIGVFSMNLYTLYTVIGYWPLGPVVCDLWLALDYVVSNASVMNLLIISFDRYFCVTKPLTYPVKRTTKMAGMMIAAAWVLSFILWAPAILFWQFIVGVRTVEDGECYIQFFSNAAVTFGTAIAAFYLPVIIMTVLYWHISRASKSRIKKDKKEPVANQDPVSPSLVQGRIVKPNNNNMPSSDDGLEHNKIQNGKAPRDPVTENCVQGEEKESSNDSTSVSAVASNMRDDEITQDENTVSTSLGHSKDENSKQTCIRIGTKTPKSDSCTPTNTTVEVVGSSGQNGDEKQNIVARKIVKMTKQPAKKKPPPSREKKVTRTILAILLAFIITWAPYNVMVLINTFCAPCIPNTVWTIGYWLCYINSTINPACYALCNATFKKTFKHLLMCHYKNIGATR

Mu-type opioid receptor = Mu-type opioid receptor (Homo sapiens, UniProt P35372)
B2 bradykinin receptor = biological target: T3, B2 bradykinin receptor (Homo sapiens, UniProt P30411)
T3 sequence (P30411 whole entry): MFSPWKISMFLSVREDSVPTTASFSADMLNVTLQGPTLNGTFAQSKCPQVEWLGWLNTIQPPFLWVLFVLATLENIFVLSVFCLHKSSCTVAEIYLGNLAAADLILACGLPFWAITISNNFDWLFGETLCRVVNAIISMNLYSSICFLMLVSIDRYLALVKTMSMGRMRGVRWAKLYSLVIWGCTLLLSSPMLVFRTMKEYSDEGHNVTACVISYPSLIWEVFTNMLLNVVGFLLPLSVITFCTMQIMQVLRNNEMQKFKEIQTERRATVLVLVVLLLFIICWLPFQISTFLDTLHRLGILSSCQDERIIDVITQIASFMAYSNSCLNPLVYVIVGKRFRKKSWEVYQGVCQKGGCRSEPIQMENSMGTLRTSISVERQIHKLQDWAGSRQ

[3] = biological target: T4, 5-hydroxytryptamine receptor 1A (Homo sapiens, UniProt P08908); type: functional, cell-based
T4 sequence (P08908 whole entry): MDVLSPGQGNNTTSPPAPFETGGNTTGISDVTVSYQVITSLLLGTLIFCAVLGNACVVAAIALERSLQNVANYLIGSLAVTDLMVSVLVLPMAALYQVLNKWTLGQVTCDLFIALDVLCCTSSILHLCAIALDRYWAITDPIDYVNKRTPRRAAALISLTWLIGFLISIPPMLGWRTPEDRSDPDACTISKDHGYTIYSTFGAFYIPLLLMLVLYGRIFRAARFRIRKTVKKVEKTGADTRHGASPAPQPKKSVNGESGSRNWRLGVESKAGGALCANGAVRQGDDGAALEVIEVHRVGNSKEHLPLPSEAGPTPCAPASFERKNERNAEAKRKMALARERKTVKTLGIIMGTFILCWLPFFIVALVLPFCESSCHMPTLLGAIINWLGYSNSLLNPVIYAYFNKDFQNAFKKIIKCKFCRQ

[4] = biological target: T5, Alpha-2C adrenergic receptor (Homo sapiens, UniProt P18825); type: functional
T5 sequence (P18825 whole entry): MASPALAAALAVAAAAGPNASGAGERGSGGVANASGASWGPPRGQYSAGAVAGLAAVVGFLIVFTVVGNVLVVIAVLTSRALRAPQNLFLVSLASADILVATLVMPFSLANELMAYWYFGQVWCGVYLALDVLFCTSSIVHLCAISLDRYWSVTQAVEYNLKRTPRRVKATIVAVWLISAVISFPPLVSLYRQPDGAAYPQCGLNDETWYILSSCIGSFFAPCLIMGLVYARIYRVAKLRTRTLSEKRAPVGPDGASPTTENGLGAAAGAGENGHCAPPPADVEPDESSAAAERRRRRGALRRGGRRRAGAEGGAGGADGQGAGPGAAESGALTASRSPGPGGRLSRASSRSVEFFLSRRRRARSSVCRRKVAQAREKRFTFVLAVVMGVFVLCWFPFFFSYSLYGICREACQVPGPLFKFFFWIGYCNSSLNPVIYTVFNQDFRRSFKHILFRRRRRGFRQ

[5] = biological target: T6, Muscarinic acetylcholine receptor M1 (Homo sapiens, UniProt P11229); type: functional
T6 sequence (P11229 whole entry): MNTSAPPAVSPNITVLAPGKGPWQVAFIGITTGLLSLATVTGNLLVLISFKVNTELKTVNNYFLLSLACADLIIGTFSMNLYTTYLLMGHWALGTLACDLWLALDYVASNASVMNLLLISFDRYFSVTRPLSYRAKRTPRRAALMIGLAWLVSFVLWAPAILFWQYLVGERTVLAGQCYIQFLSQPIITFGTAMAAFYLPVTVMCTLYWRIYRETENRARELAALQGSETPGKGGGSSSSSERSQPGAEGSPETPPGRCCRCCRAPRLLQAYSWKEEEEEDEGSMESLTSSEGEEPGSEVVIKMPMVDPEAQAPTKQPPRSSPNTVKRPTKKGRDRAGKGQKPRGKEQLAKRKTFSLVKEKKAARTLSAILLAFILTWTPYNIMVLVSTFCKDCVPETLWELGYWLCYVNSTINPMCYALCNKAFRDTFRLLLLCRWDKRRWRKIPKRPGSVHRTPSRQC
Note: assay procedure not described here.

Chain of Mu-type opioid receptor (P35372 whole entry): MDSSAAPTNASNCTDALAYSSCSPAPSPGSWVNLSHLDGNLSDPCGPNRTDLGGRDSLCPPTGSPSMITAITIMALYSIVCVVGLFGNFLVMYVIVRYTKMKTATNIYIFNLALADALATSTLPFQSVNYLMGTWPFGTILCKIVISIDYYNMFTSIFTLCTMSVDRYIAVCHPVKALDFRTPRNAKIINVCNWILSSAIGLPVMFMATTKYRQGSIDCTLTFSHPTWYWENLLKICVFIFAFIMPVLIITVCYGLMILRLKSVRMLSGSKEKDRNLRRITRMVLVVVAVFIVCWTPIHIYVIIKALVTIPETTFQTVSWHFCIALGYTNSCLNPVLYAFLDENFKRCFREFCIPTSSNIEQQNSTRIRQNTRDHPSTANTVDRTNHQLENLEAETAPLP

| SMILES | AC50 [1] [µM] | AC50 [2] [µM] | AC50 (Mu-type opioid receptor) | AC50 (B2 bradykinin receptor) [µM] | AC50 [3] [µM] | AC50 [4] [µM] | AC50 [5] [µM] |
| --- | --- | --- | --- | --- | --- | --- | --- |
| NC(=O)CCC/N=C(\c1ccc(Cl)cc1)c1cc(F)ccc1O [PROGABIDE] | > 10 | > 10 | > 30 µM | > 10 | > 10 | > 10 | > 10 |
| CC(NCCc1ccc(O)cc1)C(O)c1ccc(O)cc1 (stereo unspecified) [RITODRINE] | > 30 | > 10 | 13 µM and 9.2 µM | > 30 | > 10 | > 30 | > 30 |
| CN1c2ccccc2C(NCCCCCCC(=O)O)c2ccc(Cl)cc2S1(=O)=O (stereo unspecified) [TIANEPTINE] | > 30 | > 30 | > 30 µM | > 30 | > 30 | > 30 | > 30 |
